The GI50 is the concentration at which growth is held to half of that of the control. A low value points to more potent growth inhibition. The term IC50 denotes the concentration at which inhibition is half-maximal. Read a low IC50 as greater potency in that assay.

Activity calls are given as the source filed them. No cut-off for these calls is given here.

The values below come from ChEMBL document CHEMBL3616395, “Discovery of 4-arylamido 3-methyl isoxazole derivatives as novel FMS kinase inhibitors” (Eur J Med Chem, 2015).

The test system of data set [1] is U-937. Briefly: Antiproliferative activity against human U937 cells after 24 hrs by MTT assay. The data set is classed as functional. The following applies: U-937, 24 h. (Tetrazolium dyes change colour on reduction, which living cells bring about.)
Data set [2] in a line: Cytotoxicity against human HS27 cells after 24 hrs by MTT assay. The data set is classed as cell-based.
Data set [3] concerns A375P. Briefly: Antiproliferative activity against human A375P cells after 24 hrs by MTT assay. The data set is classed as functional, cell-based.
In data set [4] the target is Serine/threonine-protein kinase mTOR (Homo sapiens, UniProt P42345). Kind of data set: Inhibition of mTOR (unknown origin) after 40 mins by scintillation counting analysis.

In turn, `Cc1ccc(NC(=O)Nc2cccc(C(F)(F)F)c2)cc1NC(=O)c1cnoc1C` yielded a GI50 in data set [1] above 30 µM. Also, the GI50 at 24 h in data set [2] is above 30 µM. Further, the outcome in data set [3] was inactive.
The compound `CCCS(=O)(=O)Nc1ccc(NC(=O)c2cnoc2C)c(C)c1` gave a GI50 in data set [1] above 30 µM. In addition, the concentration for 50% growth inhibition (GI50) at 24 h in data set [2] was above 30 µM. For the same compound, in data set [3], the result was inactive.
For `Cc1ccc(NC(=O)Nc2ccc(Cl)c(Cl)c2)cc1NC(=O)c1cnoc1C`, the GI50 in data set [1] came out at 1.89 µM. This compound gave a GI50 at 24 h in data set [2] above 30 µM. The outcome in data set [3] was inactive.
With `Cc1cc(NC(=O)Nc2ccc(Cl)cc2)ccc1NC(=O)c1cnoc1C`, the GI50 in data set [1] is above 30 µM. This compound also gave a GI50 at 24 h in data set [2] above 30 µM. In data set [3], the result was inactive.
The compound `Cc1cc(NC(=O)Nc2cc(Cl)cc(Cl)c2)ccc1NC(=O)c1cnoc1C` yielded a GI50 in data set [1] above 30 µM. Further, the GI50 at 24 h in data set [2] was above 30 µM. Moreover, in data set [3], the outcome was inactive.
The compound `Cc1ccc(NC(=O)c2ccc(Cl)c(C(F)(F)F)c2)cc1NC(=O)c1cnoc1C` registered a concentration for 50% growth inhibition (GI50) in data set [1] above 30 µM. The compound further displayed a GI50 at 24 h in data set [2] above 30 µM. In data set [3], the result was inactive.
With `Cc1ccc(NC(=O)Cc2ccc(-c3ccccc3)cc2)cc1NC(=O)c1cnoc1C`, the GI50 in data set [1] is above 30 µM. Also, the GI50 at 24 h in data set [2] was above 30 µM. Moreover, the result in data set [3] was inactive.
In turn, `Cc1ccc(NC(=O)C(c2ccc(Cl)cc2)c2ccc(Cl)cc2)cc1NC(=O)c1cnoc1C` gave a GI50 in data set [1] above 30 µM. Also, in data set [2], the GI50 at 24 h was above 30 µM. Besides, the result in data set [3] was inactive.
The compound `Cc1cc(NC(=O)Nc2ccccc2F)ccc1NC(=O)c1cnoc1C` came in with a GI50 in data set [1] above 30 µM. In addition, the GI50 at 24 h in data set [2] is above 30 µM. Besides, the outcome in data set [3] was inactive.
In turn, `Cc1ccc(NC(=O)c2cc(-n3cncc3C)cc(C(F)(F)F)c2)cc1NC(=O)c1cnoc1C` gave a GI50 in data set [1] of 0.026 µM. The same compound had a GI50 at 24 h in data set [2] above 30 µM. For the same compound, in data set [3], the result was inactive.
In data set [1], `Cc1cc(C)cc(C(=O)Nc2ccc(C)c(NC(=O)c3cnoc3C)c2)c1` yielded a GI50 of 3.1 µM. This compound also registered a GI50 at 24 h in data set [2] above 30 µM. The outcome in data set [3] was inactive.
`Cc1ccc(NC(=O)Nc2ccc(Cl)cc2)cc1NC(=O)c1cnoc1C` yielded a GI50 in data set [1] above 30 µM. In data set [2], this compound came in with a GI50 at 24 h above 30 µM. Besides, in data set [3], the outcome was inactive.
`Cc1cc(NC(=O)Nc2ccc(Cl)c(C(F)(F)F)c2)ccc1NC(=O)c1cnoc1C` had a GI50 in data set [1] of 16.5 µM. The compound further gave a GI50 at 24 h in data set [2] above 30 µM. The outcome in data set [3] was inactive.
With `Cc1ccc(NC(=O)C2(C)CCc3c(C)c(O)c(C)c(C)c3O2)cc1NC(=O)c1cnoc1C` (stereo unspecified), in data set [1], the GI50 is above 30 µM. This compound showed a GI50 at 24 h in data set [2] above 30 µM. Moreover, the outcome in data set [3] was inactive.
With `Cc1cc(NC(=O)Nc2ccc(Cl)c(Cl)c2)ccc1NC(=O)c1cnoc1C`, in data set [1], the GI50 was above 30 µM. Moreover, the GI50 at 24 h in data set [2] is above 30 µM. The result in data set [3] was inactive.
`Cc1cc(NC(=O)Nc2cccc(Cl)c2)ccc1NC(=O)c1cnoc1C` yielded a GI50 in data set [1] above 30 µM. The GI50 at 24 h in data set [2] is above 30 µM. Also, the result in data set [3] was inactive.
For `Cc1ccc(NC(=O)c2ccc(-c3ccccc3)cc2)cc1NC(=O)c1cnoc1C`, in data set [1], the GI50 is above 30 µM. The same compound showed a GI50 at 24 h in data set [2] above 30 µM. The outcome in data set [3] was inactive.
In data set [2], `CNC(=O)c1cc(Oc2ccc(NC(=O)Nc3ccc(Cl)c(C(F)(F)F)c3)cc2)ccn1` [SORAFENIB] registered a concentration for 50% growth inhibition (GI50) at 24 h above 30 µM. The outcome in data set [3] was inactive.
Turning to `Cc1ccc(NC(=O)c2ccc(N3CCOCC3)c(C(F)(F)F)c2)cc1NC(=O)c1cnoc1C`, it took 0.465 µM to inhibit growth in data set [1] by half (GI50). For the same compound, the GI50 at 24 h in data set [2] is above 30 µM. Also, in data set [3], the outcome was inactive.
`Cc1cc(NC(=O)c2cc(N3CCN(C)CC3)cc(C(F)(F)F)c2)ccc1NC(=O)c1cnoc1C`: the GI50 in data set [1] is above 30 µM. In data set [2], the GI50 at 24 h was above 30 µM. Besides, the result in data set [3] was inactive.
For `Cc1ccc(NC(=O)c2cnn(-c3ccccc3)c2C(F)(F)F)cc1NC(=O)c1cnoc1C`, in data set [1], it took 0.139 µM to inhibit growth by half (GI50). In data set [2], this compound yielded a concentration for 50% growth inhibition (GI50) at 24 h above 30 µM. Also, the outcome in data set [3] was inactive.
`Cc1ccc(NC(=O)Cc2c[nH]c3ccccc23)cc1NC(=O)c1cnoc1C`: the GI50 in data set [1] is above 30 µM. For the same compound, the GI50 at 24 h in data set [2] is above 30 µM. Further, the result in data set [3] was inactive.
Take `Cc1ccc(NC(=O)Nc2ccc(Cl)c(C(F)(F)F)c2)cc1NC(=O)c1cnoc1C`: the GI50 in data set [1] is above 30 µM. The compound also gave a GI50 at 24 h in data set [2] above 30 µM. The result in data set [3] was inactive.
Take `Cc1ccc(NC(=O)Nc2cc(Cl)cc(Cl)c2)cc1NC(=O)c1cnoc1C`: the GI50 in data set [1] is above 30 µM. In data set [2], this compound registered a GI50 at 24 h above 30 µM. Also, the outcome in data set [3] was inactive.
In data set [1], `Cc1ccc(NC(=O)Nc2cccc(Cl)c2)cc1NC(=O)c1cnoc1C` registered a GI50 above 30 µM. Moreover, the GI50 at 24 h in data set [2] is above 30 µM. For the same compound, in data set [3], the outcome was inactive.
The compound `Cc1cc(NC(=O)Nc2cccc(C(F)(F)F)c2)ccc1NC(=O)c1cnoc1C` had a GI50 in data set [1] above 30 µM. In addition, in data set [2], the GI50 at 24 h is above 30 µM. In addition, in data set [3], the result was inactive.
Take `Cc1ccc(NC(=O)c2cc(-n3ccnc3C)cc(C(F)(F)F)c2)cc1NC(=O)c1cnoc1C`: in data set [1], it took 0.019 µM to inhibit growth by half (GI50). The same compound returned a GI50 at 24 h in data set [2] above 30 µM. Further, the result in data set [3] was inactive.
The matching figures for `Cc1cn(-c2cc(C(=O)Nc3ccc(C)c(NC(=O)c4cnoc4C)c3)cc(C(F)(F)F)c2)cn1`: 0.049 µM, above 30 µM and “inactive”.
In data set [1], `Cc1ccc(NC(=O)Nc2ccccc2F)cc1NC(=O)c1cnoc1C` yielded a GI50 above 30 µM. The compound also had a 50% growth inhibitory concentration (GI50) at 24 h in data set [2] above 30 µM. Further, the result in data set [3] was inactive.
In data set [1], `CCCS(=O)(=O)Nc1ccc(C)c(NC(=O)c2cnoc2C)c1` had a GI50 above 30 µM. Also, in data set [2], the 50% growth inhibitory concentration (GI50) at 24 h is above 30 µM. Also, the result in data set [3] was inactive.
In data set [1], `Cc1ccc(NC(=O)c2ccccc2Sc2ccccc2C#N)cc1NC(=O)c1cnoc1C` gave a GI50 above 30 µM. Moreover, the GI50 at 24 h in data set [2] is above 30 µM. Also, in data set [3], the result was inactive.
In data set [4], `O=c1cc(N2CCOCC2)oc2c(-c3ccccc3)cccc12` [LY-294002] gave an IC50 of 9.9 µM.
`Cc1ccc(NC(=O)Cc2ccccc2F)cc1NC(=O)c1cnoc1C`: the GI50 in data set [1] is above 30 µM. Also, the GI50 at 24 h in data set [2] is above 30 µM. Further, the result in data set [3] was inactive.
